The target of one assay is T1, Protein RecA (Mycobacterium tuberculosis, UniProt P9WHJ3).
T1 sequence (P9WHJ3 whole entry): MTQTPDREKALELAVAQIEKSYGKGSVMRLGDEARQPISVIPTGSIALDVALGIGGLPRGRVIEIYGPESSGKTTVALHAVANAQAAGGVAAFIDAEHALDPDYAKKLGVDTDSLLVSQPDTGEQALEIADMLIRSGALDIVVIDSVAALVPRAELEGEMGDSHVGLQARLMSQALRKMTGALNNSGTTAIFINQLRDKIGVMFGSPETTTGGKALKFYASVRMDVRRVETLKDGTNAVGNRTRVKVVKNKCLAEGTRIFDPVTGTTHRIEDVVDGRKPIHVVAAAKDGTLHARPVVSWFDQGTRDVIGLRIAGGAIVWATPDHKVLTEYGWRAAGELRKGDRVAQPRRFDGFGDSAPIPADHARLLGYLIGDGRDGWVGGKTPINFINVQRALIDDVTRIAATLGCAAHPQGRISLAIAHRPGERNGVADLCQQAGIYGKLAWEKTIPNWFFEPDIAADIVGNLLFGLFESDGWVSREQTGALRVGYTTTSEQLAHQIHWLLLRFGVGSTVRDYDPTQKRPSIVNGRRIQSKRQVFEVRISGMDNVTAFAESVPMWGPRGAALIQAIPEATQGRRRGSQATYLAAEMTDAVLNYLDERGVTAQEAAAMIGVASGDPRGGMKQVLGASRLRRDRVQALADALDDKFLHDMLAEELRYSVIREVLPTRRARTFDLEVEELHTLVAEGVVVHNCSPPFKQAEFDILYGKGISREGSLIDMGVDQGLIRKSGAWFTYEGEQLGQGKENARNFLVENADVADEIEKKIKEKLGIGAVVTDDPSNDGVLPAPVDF
Briefly: Fluorescence Cell-Free Homogeneous Dose Retest to Identify Inhibitors of RecA-Intein Splicing Activity. [Related pubchem assays (depositor defined):AID2097, AID2223, AID489010, AID492950]. Type of assay: functional.

A short description of assay [1]: Trypanosoma cruzi growth suppression in host cells – NIH3T3 host cells, beta-gal luminescence, confirmation (AID 2044).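 Also: intracellular parasites grown in NIH/3T3 mouse fibroblasts as host cells; luminescent beta-galactosidase reporter signal from transgenic T. cruzi replicating inside host cells; inhibitors lower the luminescence signal.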 The format is functional, cell-based.
For assay [2], the target named is Dual specificity tyrosine-phosphorylation-regulated kinase 1A (Rattus norvegicus, UniProt Q63470). Type of assay: biochemical, Homo sapiens.
For another assay, the system named is INS1. Briefly: INS-1E survival protection against cytokine death – cell-based, luminescence, retest, dose response (AID 449756).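 Also: cell death triggered by IL-1 beta plus TNF-alpha plus IFN-gamma mixture; protective hits raise ATP signal compared with cytokine alone wells.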 To be noted: Rattus norvegicus. Type of assay: functional.
The target of assay [3] is T2, Replicative DNA helicase DnaB (Mycobacterium tuberculosis, UniProt P9WMR3).
T2 sequence (P9WMR3 whole entry): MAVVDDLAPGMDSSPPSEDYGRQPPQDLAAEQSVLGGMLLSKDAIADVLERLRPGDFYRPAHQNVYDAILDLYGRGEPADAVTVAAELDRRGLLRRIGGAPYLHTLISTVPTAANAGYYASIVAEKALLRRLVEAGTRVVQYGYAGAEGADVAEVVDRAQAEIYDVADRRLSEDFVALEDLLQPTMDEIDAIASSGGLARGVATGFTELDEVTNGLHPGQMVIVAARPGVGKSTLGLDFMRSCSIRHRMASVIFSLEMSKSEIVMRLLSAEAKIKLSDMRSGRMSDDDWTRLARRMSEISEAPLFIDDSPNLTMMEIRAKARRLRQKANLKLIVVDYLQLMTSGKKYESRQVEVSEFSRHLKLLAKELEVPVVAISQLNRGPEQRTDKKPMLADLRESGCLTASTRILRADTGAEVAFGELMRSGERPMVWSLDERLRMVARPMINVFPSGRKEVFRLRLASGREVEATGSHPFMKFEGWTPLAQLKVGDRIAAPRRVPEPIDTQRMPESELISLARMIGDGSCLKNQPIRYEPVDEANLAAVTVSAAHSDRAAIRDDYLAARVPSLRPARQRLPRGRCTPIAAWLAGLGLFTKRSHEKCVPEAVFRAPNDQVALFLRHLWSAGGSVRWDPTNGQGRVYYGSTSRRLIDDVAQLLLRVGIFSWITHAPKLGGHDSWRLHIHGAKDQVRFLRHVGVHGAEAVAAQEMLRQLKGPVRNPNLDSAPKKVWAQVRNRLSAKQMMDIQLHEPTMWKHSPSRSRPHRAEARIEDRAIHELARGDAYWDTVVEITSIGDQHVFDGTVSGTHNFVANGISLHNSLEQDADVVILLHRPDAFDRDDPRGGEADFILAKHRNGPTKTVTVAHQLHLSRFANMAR
The assay can be described thus: DnaB intein splicing inhibitors, dose response, biochemical, cell-free fluorescence (AID 449749). The format is functional.

Assay [4] concerns the target T3, Tyrosyl-DNA phosphodiesterase 2 (Homo sapiens, UniProt O95551).
T3 sequence (O95551 whole entry): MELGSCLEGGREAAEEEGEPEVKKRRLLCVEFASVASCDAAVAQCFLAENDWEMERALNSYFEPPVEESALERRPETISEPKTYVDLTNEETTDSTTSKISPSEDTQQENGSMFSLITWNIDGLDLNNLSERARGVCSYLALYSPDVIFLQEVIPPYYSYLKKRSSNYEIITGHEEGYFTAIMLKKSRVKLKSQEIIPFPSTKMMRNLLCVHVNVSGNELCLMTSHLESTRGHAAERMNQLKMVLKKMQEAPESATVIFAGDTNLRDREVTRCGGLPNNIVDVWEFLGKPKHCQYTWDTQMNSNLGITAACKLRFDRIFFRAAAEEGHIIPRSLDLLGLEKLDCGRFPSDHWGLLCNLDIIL
The assay can be described thus: potency against TDP2 phosphodiesterase activity – biochemical, epi absorbance, IC50, dose response (AID 743297).

Assay [5] is described as follows: NIH3T3 cell viability loss – ATP luminescence, mouse fibroblasts, counter-screen, dose response (AID 2010).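 Also: cells exposed to compound for about 90 hours before reading.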 Type of assay: functional, cell-based. In general terms: A counterscreen serves to expose hits that act by an unwanted route or on another target.
The target in assay [6] is T4, Apoptotic protease-activating factor 1 (Homo sapiens, UniProt O14727).
T4 sequence (O14727 whole entry): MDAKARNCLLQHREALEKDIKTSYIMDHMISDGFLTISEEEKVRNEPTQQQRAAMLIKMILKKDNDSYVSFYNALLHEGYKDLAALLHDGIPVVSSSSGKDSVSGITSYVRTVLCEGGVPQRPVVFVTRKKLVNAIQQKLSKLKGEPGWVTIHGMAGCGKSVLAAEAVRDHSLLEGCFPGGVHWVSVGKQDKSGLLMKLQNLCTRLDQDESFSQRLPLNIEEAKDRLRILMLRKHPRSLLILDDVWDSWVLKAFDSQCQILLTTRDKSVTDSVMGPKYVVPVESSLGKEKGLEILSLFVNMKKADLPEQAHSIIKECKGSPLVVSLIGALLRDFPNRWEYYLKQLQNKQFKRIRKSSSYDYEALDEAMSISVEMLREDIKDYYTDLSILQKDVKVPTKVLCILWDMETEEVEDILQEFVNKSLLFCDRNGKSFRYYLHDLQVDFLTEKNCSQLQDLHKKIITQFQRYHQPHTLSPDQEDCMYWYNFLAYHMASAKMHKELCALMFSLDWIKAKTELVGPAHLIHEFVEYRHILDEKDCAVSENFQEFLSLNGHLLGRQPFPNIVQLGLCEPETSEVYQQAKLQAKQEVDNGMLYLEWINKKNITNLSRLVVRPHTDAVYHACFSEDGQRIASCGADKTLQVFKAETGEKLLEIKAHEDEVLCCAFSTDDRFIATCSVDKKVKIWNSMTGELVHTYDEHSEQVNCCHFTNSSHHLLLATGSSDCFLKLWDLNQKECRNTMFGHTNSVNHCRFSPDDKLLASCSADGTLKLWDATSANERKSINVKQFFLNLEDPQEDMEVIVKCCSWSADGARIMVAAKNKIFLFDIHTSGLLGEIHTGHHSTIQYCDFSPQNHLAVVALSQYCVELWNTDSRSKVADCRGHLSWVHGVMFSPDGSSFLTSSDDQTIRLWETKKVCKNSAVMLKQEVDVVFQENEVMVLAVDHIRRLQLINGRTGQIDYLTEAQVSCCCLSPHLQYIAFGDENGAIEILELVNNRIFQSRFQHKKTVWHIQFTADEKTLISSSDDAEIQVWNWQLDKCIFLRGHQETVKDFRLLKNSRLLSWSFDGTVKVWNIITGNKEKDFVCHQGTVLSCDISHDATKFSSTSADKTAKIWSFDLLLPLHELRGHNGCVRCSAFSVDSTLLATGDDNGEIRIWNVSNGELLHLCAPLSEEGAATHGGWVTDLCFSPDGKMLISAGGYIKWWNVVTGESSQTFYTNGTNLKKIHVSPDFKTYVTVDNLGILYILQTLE
Type of assay: functional.

For assay [7], the target named is T5, Endoribonuclease toxin MazF (Escherichia coli K-12, UniProt P0AE70).
T5 sequence (P0AE70 whole entry): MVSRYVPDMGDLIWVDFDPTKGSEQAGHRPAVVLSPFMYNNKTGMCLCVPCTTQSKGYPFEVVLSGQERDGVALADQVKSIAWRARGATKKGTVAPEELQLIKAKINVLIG
Briefly: substrate-only fluorescence increase artefacts – biochemical, single-stranded RNase substrate, counter-screen for MazEF activator project, dose response (AID 588502). Type of assay: functional.

The target in assay [8] is T5, Endoribonuclease toxin MazF. Briefly: activation of MazEF endoribonuclease cleavage – biochemical, fluorescence, single-stranded RNA substrate, uHTS hits, dose response (AID 588481). The format is functional.
Another assay has as its system HEK293. Briefly: EBV LMP1 TES2 canonical NF-kB signalling blockers – cell-based, HEK293, luciferase, cherry-pick, dose response (AID 588343). The format is functional. Particulars: Homo sapiens.
Another assay addresses Genome polyprotein (dengue virus type 2, UniProt P29990). Briefly: flavivirus cap methylation enzyme inhibition – biochemical, confirmation dose response, primary screen (AID 588689). Type of assay: functional.
The target in assay [9] is T6, Rac GTPase-activating protein 1 (Homo sapiens, UniProt Q9H0H5).
T6 sequence (Q9H0H5 whole entry): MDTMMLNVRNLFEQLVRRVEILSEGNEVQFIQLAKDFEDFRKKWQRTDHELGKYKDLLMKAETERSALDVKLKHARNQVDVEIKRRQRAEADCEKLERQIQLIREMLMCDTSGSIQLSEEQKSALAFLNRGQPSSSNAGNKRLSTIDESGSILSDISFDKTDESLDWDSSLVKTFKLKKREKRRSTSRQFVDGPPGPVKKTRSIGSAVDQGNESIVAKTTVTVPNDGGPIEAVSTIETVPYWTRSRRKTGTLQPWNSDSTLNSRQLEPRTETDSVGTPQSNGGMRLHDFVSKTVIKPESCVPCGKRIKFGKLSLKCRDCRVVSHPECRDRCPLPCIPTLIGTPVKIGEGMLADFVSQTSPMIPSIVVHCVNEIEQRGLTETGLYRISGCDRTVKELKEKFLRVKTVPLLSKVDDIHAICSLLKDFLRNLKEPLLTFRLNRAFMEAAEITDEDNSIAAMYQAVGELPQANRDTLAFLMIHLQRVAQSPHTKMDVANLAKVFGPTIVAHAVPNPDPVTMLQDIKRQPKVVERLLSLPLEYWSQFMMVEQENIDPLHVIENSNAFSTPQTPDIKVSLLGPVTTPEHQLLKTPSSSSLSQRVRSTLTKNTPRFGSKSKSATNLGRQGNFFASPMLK
Briefly: blockers of MgcRacGAP-driven Rac1 GTP hydrolysis – biochemical, ADP Hunter fluorescence, primary and confirmatory, confirmation (AID 624330). The format is functional.

The target of another assay is T7, Caspase-6 (Homo sapiens, UniProt P55212).
T7 sequence (P55212 whole entry): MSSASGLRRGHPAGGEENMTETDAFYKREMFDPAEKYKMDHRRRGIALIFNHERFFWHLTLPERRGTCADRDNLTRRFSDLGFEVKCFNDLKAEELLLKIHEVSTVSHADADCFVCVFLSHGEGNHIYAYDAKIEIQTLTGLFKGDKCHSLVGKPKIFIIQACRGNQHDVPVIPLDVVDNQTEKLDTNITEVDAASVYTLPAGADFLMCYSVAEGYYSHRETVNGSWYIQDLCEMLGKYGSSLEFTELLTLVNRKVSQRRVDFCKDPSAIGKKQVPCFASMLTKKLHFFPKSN
The assay can be described thus: inhibition of CASP6 peptide cleavage – biochemical, VEID-R110 fluorescence, cherry-pick, dose response (AID 720632).

In a further assay the target is Paired box protein Pax-8 (Homo sapiens, UniProt Q06710). Briefly: PAX8 transcriptional activity inhibition in RMG-I – RMG-I cells, luciferase, cherry-pick, dose response (AID 687027).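 Also: luciferase reporter driven by Pax8 target thyroperoxidase promoter measured by SteadyGlo luminescence.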 Type of assay: functional, cell-based.
Paired box protein Pax-8, sequence (Q06710 whole entry): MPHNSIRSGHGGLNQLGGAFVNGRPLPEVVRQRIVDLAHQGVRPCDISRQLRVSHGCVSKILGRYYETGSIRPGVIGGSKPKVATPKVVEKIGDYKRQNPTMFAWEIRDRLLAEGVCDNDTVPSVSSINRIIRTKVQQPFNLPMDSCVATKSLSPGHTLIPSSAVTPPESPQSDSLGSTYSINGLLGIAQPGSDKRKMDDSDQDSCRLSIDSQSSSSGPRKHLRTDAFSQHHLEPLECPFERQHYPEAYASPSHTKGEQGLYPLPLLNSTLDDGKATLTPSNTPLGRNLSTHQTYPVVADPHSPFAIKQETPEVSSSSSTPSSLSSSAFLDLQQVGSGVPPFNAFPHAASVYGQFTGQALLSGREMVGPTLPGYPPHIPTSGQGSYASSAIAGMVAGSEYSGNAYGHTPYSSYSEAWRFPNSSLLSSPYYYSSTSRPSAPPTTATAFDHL

Activity calls are given as the source filed them.

Genome polyprotein, sequence (P29990 2492-3391 limits assumed): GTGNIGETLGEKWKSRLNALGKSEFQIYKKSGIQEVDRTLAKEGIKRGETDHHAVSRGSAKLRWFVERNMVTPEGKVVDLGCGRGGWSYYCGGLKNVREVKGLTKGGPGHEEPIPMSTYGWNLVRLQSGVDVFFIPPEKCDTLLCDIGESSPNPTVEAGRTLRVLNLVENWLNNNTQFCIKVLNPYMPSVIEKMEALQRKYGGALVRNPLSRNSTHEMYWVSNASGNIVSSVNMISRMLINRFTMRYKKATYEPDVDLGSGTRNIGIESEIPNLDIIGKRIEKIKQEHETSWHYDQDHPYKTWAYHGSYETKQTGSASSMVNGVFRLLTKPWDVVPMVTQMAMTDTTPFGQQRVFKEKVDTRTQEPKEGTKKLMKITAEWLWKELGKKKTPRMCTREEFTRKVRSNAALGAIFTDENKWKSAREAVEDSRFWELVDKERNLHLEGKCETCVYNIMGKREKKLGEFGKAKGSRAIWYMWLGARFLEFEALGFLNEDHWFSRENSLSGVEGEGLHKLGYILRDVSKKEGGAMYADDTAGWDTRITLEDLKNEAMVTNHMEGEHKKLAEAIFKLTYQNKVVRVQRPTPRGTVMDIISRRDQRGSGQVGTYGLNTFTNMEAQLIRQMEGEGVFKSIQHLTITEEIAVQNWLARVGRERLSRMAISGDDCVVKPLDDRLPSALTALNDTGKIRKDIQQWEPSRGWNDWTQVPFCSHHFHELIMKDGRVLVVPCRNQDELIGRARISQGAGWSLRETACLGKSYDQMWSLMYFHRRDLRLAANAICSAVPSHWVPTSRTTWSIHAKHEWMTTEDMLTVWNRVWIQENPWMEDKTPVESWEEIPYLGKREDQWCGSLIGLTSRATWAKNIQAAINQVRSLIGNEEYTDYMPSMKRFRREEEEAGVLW

Usually EC50 stands for the midpoint of the concentration-response curve. As usually defined, the AC50 is the concentration at which the activity in the assay is half-maximal. The term IC50 denotes the concentration needed to halve the response being measured. As for `Cc1ccc(NC2=C(N3CCCCC3)C(=O)c3ccccc3C2=O)cc1`, the EC50 on Protein RecA was 0.619 µM (active); in assay [1], 0.629 µM (active); in [5], > 30 µM (not active). The AC50 is 11 µM (active) in [2], 0.489 µM (active) in the assay with INS1 and 7.31 µM (active) in assay [3]. Moreover, the IC50 in assay [4] is > 128 µM (inactive); in assay [6], 4.88 µM (active).

Turning to `Cc1ccc(-n2nnnc2SCC(=O)c2c(N)n(C3CC3)c(=O)[nH]c2=O)cc1C`, the EC50 in [7] and in assay [8] was > 99 µM (inactive) in each case.

As to `CC(C)Nc1nnc(SCC(=O)c2c(N)n(Cc3ccccc3)c(=O)n(C)c2=O)s1`, in the assay with HEK293, the AC50 was 101 µM (active).

For `Nc1nc(Sc2ccc([N+](=O)[O-])c3nonc23)c2[nH]cnc2n1`, the IC50 on Genome polyprotein was 16 µM (active); in [9] it was 49.7 µM (active). Also, the AC50 was 5.68 µM (active) at Caspase-6 and 2.17 µM (active) at Paired box protein Pax-8.
